Reference: ChEMBL document CHEMBL1201862, “PubChem BioAssay data set” (2004)
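How tested: cells in 96-well plates exposed to compound for 48 hours at five concentrations. Abbreviation: GI50, concentration required for 50% inhibition of growth.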 Active and inactive are the calls of the source. Cut-off read from the data, not from the text of the source: active = GI50 up to about 1.1 µM and inactive = higher.

How the values were obtained:
Experiment in all cases: inhibition of tumour cell growth, NCI panel, 48 h
[1] = tested on: UO-31
[2] = tested on: U-251
[3] = tested on: MCF7
[4] = tested on: A549
[5] = tested on: OVCAR-5
[6] = tested on: HCT-15
[7] = tested on: NCI-H460
[8] = tested on: MDA-MB-435
[9] = tested on: K562
[10] = tested on: CCRF-CEM
[11] = tested on: RPMI-8226
[12] = tested on: MDA-MB-231
[13] = tested on: LOX IMVI
[14] = tested on: SNB-75
[15] = tested on: SR
[16] = tested on: OVCAR-4
[17] = tested on: NCI-H23
[18] = tested on: BT-549
[19] = tested on: COLO 205
[20] = tested on: MOLT-4
[21] = tested on: HOP-62
[22] = tested on: A498
[23] = tested on: SK-MEL-28
[24] = tested on: T47D
[25] = tested on: SK-MEL-2
[26] = tested on: SN12C
[27] = tested on: SNB-19
[28] = tested on: NCI/ADR-RES
[29] = tested on: SK-MEL-5
[30] = tested on: DU-145
[31] = tested on: PC-3
[32] = tested on: HCT-116
[33] = tested on: HT-29
[34] = tested on: EKVX
[35] = tested on: IGROV-1
[36] = tested on: HOP-92
[37] = tested on: M14
[38] = tested on: KM12
[39] = tested on: SW-620
[40] = tested on: UACC-257
[41] = tested on: HCC 2998
[42] = tested on: CAKI-1
[43] = tested on: SF-539
[44] = tested on: NCI-H522
[45] = tested on: Hs-578T
[46] = tested on: OVCAR-8
[47] = tested on: Malme-3M
[48] = tested on: SF-268
[49] = tested on: TK-10
[50] = tested on: UACC-62
[51] = tested on: MDA-N
[52] = tested on: SF-295
[53] = tested on: HL-60
[54] = tested on: SK-OV-3
[55] = tested on: 786-0
[56] = tested on: RXF 393
[57] = tested on: OVCAR-3
[58] = tested on: ACHN
[59] = tested on: NCI-H226

CN(C)CCNc1ccc2c(=O)n(CCN(C)C)c(=O)n3c4ccc(N)cc4c(=O)c1c23
GI50 [1]: 38.2 nM (active)
GI50 [2]: 26.4 nM (active)
GI50 [3]: < 12 nM (active)
GI50 [4]: < 10 nM (active)
GI50 [5]: 99.8 nM (active)
GI50 [6]: 21.1 nM
GI50 [7]: < 10 nM (active)
GI50 [8]: 101 nM (active)
GI50 [9]: < 10 nM (active)
GI50 [10]: < 10 nM (active)
GI50 [11]: 40 nM (active)
GI50 [12]: 187 nM (active)
GI50 [13]: 77.5 nM (active)
GI50 [14]: 78.2 nM (active)
GI50 [15]: < 19.4 nM (active)
GI50 [16]: 72.1 nM (active)
GI50 [17]: 36.1 nM (active)
GI50 [18]: 407 nM (active)
GI50 [19]: 67.5 nM (active)
GI50 [20]: < 10 nM (active)
GI50 [21]: 109 nM (active)
GI50 [22]: 408 nM (active)
GI50 [23]: 240 nM (active)
GI50 [24]: 207 nM (active)
GI50 [25]: 117 nM (active)
GI50 [26]: < 10 nM (active)
GI50 [27]: 26.1 nM (active)
GI50 [28]: 259 nM (active)
GI50 [29]: 194 nM (active)
GI50 [30]: 66.5 nM (active)
GI50 [31]: 60.8 nM (active)
GI50 [32]: < 10 nM (active)
GI50 [33]: < 10 nM (active)
GI50 [34]: 119 nM (active)
GI50 [35]: < 12.4 nM (active)
GI50 [36]: 80.7 nM (active)
GI50 [37]: 120 nM (active)
GI50 [38]: 64.4 nM (active)
GI50 [39]: < 10 nM (active)
GI50 [40]: 258 nM (active)
GI50 [41]: 39.2 nM (active)
GI50 [42]: 115 nM (active)
GI50 [43]: 39.5 nM (active)
GI50 [44]: < 10 nM (active)
GI50 [45]: 178 nM (active)
GI50 [46]: < 10 nM (active)
GI50 [47]: 116 nM (active)
GI50 [48]: < 27.2 nM (active)
GI50 [49]: 318 nM (active)
GI50 [50]: 393 nM (active)
GI50 [51]: 50.2 nM (active)
GI50 [52]: 67.1 nM (active)
GI50 [53]: 43.4 nM (active)
GI50 [54]: 261 nM (active)
GI50 [55]: < 10 nM (active)
GI50 [56]: 76.9 nM (active)
GI50 [57]: 99.5 nM (active)
GI50 [58]: < 10 nM (active)
GI50 [59]: < 21.5 nM (active)

CCCCCCCCCCCCC1N=C(N)N2CCCC2=C1C(=O)OC (configuration not stated)
GI50 [1]: 8260 nM (inactive)
GI50 [2]: 1650 nM (inactive)
GI50 [3]: 1770 nM (inactive)
GI50 [4]: 8670 nM (inactive)
GI50 [5]: 6250 nM (inactive)
GI50 [6]: 1790 nM
GI50 [7]: 1790 nM (inactive)
GI50 [8]: 1860 nM (inactive)
GI50 [9]: 1380 nM (inactive)
GI50 [10]: 1610 nM (inactive)
GI50 [11]: 1820 nM (inactive)
GI50 [12]: 1900 nM (inactive)
GI50 [13]: 1510 nM (inactive)
GI50 [14]: 1540 nM (inactive)
GI50 [15]: 2130 nM (inactive)
GI50 [16]: 2310 nM (inactive)
GI50 [17]: 2260 nM (inactive)
GI50 [18]: 10900 nM (inactive)
GI50 [19]: 1950 nM (inactive)
GI50 [20]: 1470 nM (inactive)
GI50 [21]: 4240 nM (inactive)
GI50 [22]: 22600 nM (inactive)
GI50 [23]: 1690 nM (inactive)
GI50 [24]: 1690 nM (inactive)
GI50 [25]: 2320 nM (inactive)
GI50 [26]: 2750 nM (inactive)
GI50 [27]: 1800 nM (inactive)
GI50 [28]: 5920 nM (inactive)
GI50 [29]: 2420 nM (inactive)
GI50 [30]: 8070 nM (inactive)
GI50 [31]: 1620 nM (inactive)
GI50 [32]: 1730 nM (inactive)
GI50 [33]: 1670 nM (inactive)
GI50 [34]: 14700 nM (inactive)
GI50 [35]: 3220 nM (inactive)
GI50 [36]: 4350 nM (inactive)
GI50 [37]: 1730 nM (inactive)
GI50 [38]: 1980 nM (inactive)
GI50 [39]: 1700 nM (inactive)
GI50 [40]: 1860 nM (inactive)
GI50 [41]: 1840 nM (inactive)
GI50 [42]: 3240 nM (inactive)
GI50 [43]: 5410 nM (inactive)
GI50 [44]: 1760 nM (inactive)
GI50 [45]: 2250 nM (inactive)
GI50 [46]: 2490 nM (inactive)
GI50 [47]: 1800 nM (inactive)
GI50 [48]: 3440 nM (inactive)
GI50 [49]: 7620 nM (inactive)
GI50 [50]: 1740 nM (inactive)
GI50 [51]: 1950 nM (inactive)
GI50 [52]: 1780 nM (inactive)
GI50 [53]: 1850 nM (inactive)
GI50 [54]: 8490 nM (inactive)
GI50 [55]: 1740 nM (inactive)
GI50 [56]: 47800 nM (inactive)
GI50 [57]: 2140 nM (inactive)
GI50 [58]: 5380 nM (inactive)
GI50 [59]: 19100 nM (inactive)

Brc1ccccc1/C=C\C1(c2ccccc2)OCCO1
GI50 [1]: 7830 nM (inactive)
GI50 [2]: 6240 nM (inactive)
GI50 [3]: 4000 nM (inactive)
GI50 [4]: 16000 nM (inactive)
GI50 [5]: 15300 nM (inactive)
GI50 [6]: 6380 nM
GI50 [7]: 14100 nM (inactive)
GI50 [8]: 11700 nM (inactive)
GI50 [9]: 1010 nM (active)
GI50 [10]: 3030 nM (inactive)
GI50 [11]: 1010 nM (active)
GI50 [12]: 9270 nM (inactive)
GI50 [13]: 3340 nM (inactive)
GI50 [14]: 15000 nM (inactive)
GI50 [15]: 692 nM (active)
GI50 [16]: 4260 nM (inactive)
GI50 [17]: 7290 nM (inactive)
GI50 [18]: 18300 nM (inactive)
GI50 [19]: 19600 nM (inactive)
GI50 [20]: 238 nM (active)
GI50 [21]: 14500 nM (inactive)
GI50 [22]: 12900 nM (inactive)
GI50 [23]: 18800 nM (inactive)
GI50 [24]: 15200 nM (inactive)
GI50 [25]: 23000 nM (inactive)
GI50 [26]: 14100 nM (inactive)
GI50 [27]: 15000 nM (inactive)
GI50 [28]: 10900 nM (inactive)
GI50 [29]: 15200 nM (inactive)
GI50 [30]: 13700 nM (inactive)
GI50 [31]: 17900 nM (inactive)
GI50 [32]: 4980 nM (inactive)
GI50 [33]: 7010 nM (inactive)
GI50 [34]: 15800 nM (inactive)
GI50 [35]: 13600 nM (inactive)
GI50 [36]: 23300 nM (inactive)
GI50 [37]: 11400 nM (inactive)
GI50 [38]: 2340 nM (inactive)
GI50 [39]: 5470 nM (inactive)
GI50 [40]: 16500 nM (inactive)
GI50 [41]: 15700 nM (inactive)
GI50 [42]: 6590 nM (inactive)
GI50 [43]: 10400 nM (inactive)
GI50 [44]: 8110 nM (inactive)
GI50 [45]: 7600 nM (inactive)
GI50 [46]: 9230 nM (inactive)
GI50 [47]: 15900 nM (inactive)
GI50 [48]: 4980 nM (inactive)
GI50 [49]: 16600 nM (inactive)
GI50 [50]: 14700 nM (inactive)
GI50 [51]: 12300 nM (inactive)
GI50 [52]: 13400 nM (inactive)
GI50 [53]: 24700 nM (inactive)
GI50 [54]: 13600 nM (inactive)
GI50 [55]: 11600 nM (inactive)
GI50 [56]: 13900 nM (inactive)
GI50 [57]: 12700 nM (inactive)
GI50 [58]: 8510 nM (inactive)
GI50 [59]: 18300 nM (inactive)
